From patent publication US12522596B2, “Compounds as GLP-1R agonists” (Terns Pharmaceuticals, Inc., priority 2021, dated 2026)
Several values for one entry are separate records, joined by “and”; a condition that tells them apart may be missing. Identical values can stand only once. Like-named read-outs stand apart in the source and are kept apart here. Marks after values point to notes of the source that are not given here.

Test: Pharmacokinetics in hGLP-1R mice after oral dosing
Format: in vivo, male C57BL/6J hGLP-1R mouse
Method: IPGTT (120 min)—PK bleeding: 40 μL blood samples (all treatment groups) were collected from mice under the jaw at IPGTT-120 min after blood glucose measurement into pre-chilled EDTA-2K tubes. Blood samples were processed for plasma by centrifugation at 4° C., 3200×g for 10 min. 15 μL plasma was stored at −80° C. for PK analysis. From 4 mice in Group 7 of the PD cohort, whole brain was collected after blood is harvested at 120 min post dose, rinsed with saline and patted dry and placed into a pre-weighed tube and stored at −80° C. collected for PK analysis.
PK bleeding group design is described in Table 9.
PK bleeding: 30 μL blood was collected at 0.25, 0.5, 1, 2, 4, and 8 h. Blood samples were processed for plasma by centrifugation at 4° C., 3200×g for 10 min. 12 μL plasma was collected at −80° C. for further analysis. From 3 mice in Group 7 of the PK cohort, whole brain was collected after blood is harvested at 8 hr post dose, rinsed with saline and patted dry and placed into a pre-weighed tube and stored at −80° C. collected for PK analysis.
For plasma: An aliquot of 3 μL sample was protein precipitated with 60 μL internal standard (100 ng/mL Labetalol & 100 ng/ml Dexamethasone & 100 ng/ml Tolbutamide & 100 ng/mL Verapamil & 100 ng/ml Glyburide & 100 ng/ml Celecoxib in ACN) and then the mixture was vortex-mixed for 10 min at 800 rpm and centrifuged for 15 min at 3220×g, 4° C.
The linear/log trapezoidal rule was applied in obtaining the PK parameters. Individual plasma concentration values that were below the lower limit of quantitation (LOQ) were excluded from the PK parameter calculation. The nominal dose levels and nominal sampling times were used in the calculation of all pharmacokinetic parameters.

[1] = hGLP-1R mouse plasma, PO 0.3 mg/kg, individual mice, 0.3 mg/kg
[2] = hGLP-1R mouse plasma, PO 0.3 mg/kg, mean
[3] = hGLP-1R mouse plasma, PO 1 mg/kg, individual mice, 1 mg/kg
[4] = hGLP-1R mouse plasma, PO 1 mg/kg, mean
[5] = hGLP-1R mouse plasma, PO 3 mg/kg, individual mice, 3 mg/kg
[6] = hGLP-1R mouse plasma, PO 3 mg/kg, mean

N#Cc1ccc(COc2cccc(C3CCN(Cc4nc5ccc(C(=O)O)cc5n4Cc4cncs4)CC3)n2)c(F)c1 [Compound 2]
higher AUClast than Reference Compound A (hGLP-1R mice, PO 0.3 mg/kg): four-fold
higher Cmax than Reference Compound A (hGLP-1R mice, PO 0.3 mg/kg): three-fold
higher AUClast than Reference Compound A (hGLP-1R mice, PO 1.0 mg/kg): approximately 4.6 fold
higher Cmax than Reference Compound A (hGLP-1R mice, PO 1.0 mg/kg): approximately 5.7 fold
increase in exposure values over a ten-fold increase in dose (hGLP-1R mice, PO 0.3 to 3 mg/kg): 22 fold
increase of exposure with dose (dose proportionality) (hGLP-1R mice, PO, Reference Compound A 0.3-1 mg/kg, Compound 2 0.3-3 mg/kg): greater than proportional manner
Concentration (hGLP-1R mouse plasma collected at 120 min (IPGTT cohort), PO 0.3 mg/kg, individual animals, 0.3 mg/kg): 26.1 ng/mL and 11.5 ng/mL and 15.0 ng/mL and 31.4 ng/mL and 17.3 ng/mL and 17.2 ng/mL and 13.1 ng/mL
Concentration (hGLP-1R mouse plasma collected at 120 min (IPGTT cohort), PO 1 mg/kg, individual animals, 1 mg/kg): 61.2 ng/mL and 53.6 ng/mL and 148 ng/mL and 60.4 ng/mL and 60.3 ng/mL and 48.9 ng/mL and 56.3 ng/mL
Concentration (hGLP-1R mouse plasma collected at 120 min (IPGTT cohort), PO 3 mg/kg, individual animals, 3 mg/kg): 159 ng/mL and 227 ng/mL and 555 ng/mL and 301 ng/mL and 239 ng/mL and 229 ng/mL and 231 ng/mL
Concentration (hGLP-1R mouse plasma, PO 0.3 mg/kg, 0.25 h, individual animals, 0.3 mg/kg): 66.8 ng/mL and 116 ng/mL and 52.2 ng/mL
Concentration (hGLP-1R mouse plasma, PO 0.3 mg/kg, 0.5 h, individual animals, 0.3 mg/kg): 60.3 ng/mL and 118 ng/mL
Concentration (hGLP-1R mouse plasma, PO 0.3 mg/kg, 1 h, individual animals, 0.3 mg/kg): 49.2 ng/mL and 55.8 ng/mL
Concentration (hGLP-1R mouse plasma, PO 0.3 mg/kg, 2 h, individual animals, 0.3 mg/kg): 18.2 ng/mL and 6.53 ng/mL and 7.14 ng/mL
Concentration (hGLP-1R mouse plasma, PO 0.3 mg/kg, 4 h, individual animals, 0.3 mg/kg): 7.15 ng/mL and 1.84 ng/mL and 2.23 ng/mL
Concentration (hGLP-1R mouse plasma, PO 0.3 mg/kg, 8 h, individual animals, 0.3 mg/kg): 1.64 ng/mL and BQL
AUC0-inf [1]: 90.4 ng·h/mL and 120 ng·h/mL
AUC0-last [1]: 87.0 ng·h/mL and 117 ng·h/mL
AUCExtra [1]: 5.66% and 3.76% and 1.86%
AUMCExtra [1]: 25.0% and 22.4% and 10.0%
Cmax [1]: 66.8 ng/mL and 118 ng/mL
MRT0-inf [1]: 2.49 h and 1.69 h and 0.928 h
MRT0-last [1]: 1.98 h and 1.36 h and 0.851 h
T1/2 [1]: 2.08 h and 1.44* h and 0.691* h
Tlast [1]: 8.00 h (2×) and 4.00 h
Tmax [1]: 15 min
AUCExtra [2]: 3.76%
AUMCExtra [2]: 19.1%
Concentration (hGLP-1R mouse plasma, PO 1 mg/kg, 0.25 h, individual animals, 1 mg/kg): 208 ng/mL and 224 ng/mL
Concentration (hGLP-1R mouse plasma, PO 1 mg/kg, 0.5 h, individual animals, 1 mg/kg): 256 ng/mL and 265 ng/mL
Concentration (hGLP-1R mouse plasma, PO 1 mg/kg, 1 h, individual animals, 1 mg/kg): 183 ng/mL and 156 ng/mL
Concentration (hGLP-1R mouse plasma, PO 1 mg/kg, 2 h, individual animals, 1 mg/kg): 77.6 ng/mL and 36.6 ng/mL and 31.7 ng/mL
Concentration (hGLP-1R mouse plasma, PO 1 mg/kg, 4 h, individual animals, 1 mg/kg): 8.59 ng/mL and 6.36 ng/mL
Concentration (hGLP-1R mouse plasma, PO 1 mg/kg, 8 h, individual animals, 1 mg/kg): 4.90 ng/mL and 6.23 ng/mL and 3.07 ng/mL
Tlast (hGLP-1R mouse plasma, PO 1 mg/kg, individual mice): 8.00 h
AUC0-inf [3]: 366 ng·h/mL and 326 ng·h/mL
AUC0-last [3]: 352 ng·h/mL and 320 ng·h/mL
AUCExtra [3]: 1.78% and 3.97% and 1.84%
AUMCExtra [3]: 11.9% and 22.6% and 12.9%
Cmax [3]: 256 ng/mL and 265 ng/mL
MRT0-inf [3]: 1.81 h and 1.42 h
MRT0-last [3]: 1.46 h and 1.26 h
T1/2 [3]: 1.62* h and 1.36* h
AUCExtra [4]: 2.53%
AUMCExtra [4]: 15.8%
Tlast [4]: 8.00 h
Concentration (hGLP-1R mouse plasma, PO 3 mg/kg, 0.25 h, individual animals, 3 mg/kg): 823 ng/mL and 1030 ng/mL and 2870 ng/mL
Concentration (hGLP-1R mouse plasma, PO 3 mg/kg, 0.5 h, individual animals, 3 mg/kg): 982 ng/mL and 937 ng/mL and 3450 ng/mL
Concentration (hGLP-1R mouse plasma, PO 3 mg/kg, 1 h, individual animals, 3 mg/kg): 592 ng/mL and 387 ng/mL and 1990 ng/mL
Concentration (hGLP-1R mouse plasma, PO 3 mg/kg, 2 h, individual animals, 3 mg/kg): 157 ng/mL and 100 ng/mL and 655 ng/mL
Concentration (hGLP-1R mouse plasma, PO 3 mg/kg, 4 h, individual animals, 3 mg/kg): 48.1 ng/mL and 35.1 ng/mL and 170 ng/mL
Tlast (hGLP-1R mouse plasma, PO 3 mg/kg, individual mice): 8.00 h
AUC0-inf [5]: 1923 ng·h/mL and 1229 ng·h/mL and 4707 ng·h/mL
AUC0-last [5]: 1497 ng·h/mL and 1154 ng·h/mL and 4673 ng·h/mL
AUCExtra [5]: 22.2% and 6.12% and 0.710%
AUMCExtra [5]: 63.8% and 30.6% and 4.74%
Cmax [5]: 982 ng/mL and 1030 ng/mL and 3450 ng/mL
MRT0-inf [5]: 4.39 h and 2.08 h and 1.46 h
MRT0-last [5]: 1.54 h
T1/2 [5]: 3.21* h and 1.68* h and 1.19 h
Tmax [5]: 15 min
AUCExtra [6]: 9.68%
AUMCExtra [6]: 33.0%
Tlast [6]: 8.00 h
AUC(0-t) (male, C57BL/6J hGLP-1R, mouse, plasma, po, 0.3 mg/kg, hGLP-1R mice, total, PO 0.3 mg/kg, read-out: AUClast Mean): 107 ng·h/mL
Cmax (male, C57BL/6J hGLP-1R, mouse, plasma, po, 0.3 mg/kg, hGLP-1R mice, total, PO 0.3 mg/kg, read-out: Cmax Mean): 82.7 ng/mL
half-life (male, C57BL/6J hGLP-1R, mouse, plasma, po, 0.3 mg/kg, hGLP-1R mice, total, PO 0.3 mg/kg, read-out: T1/2 (converted)): 84 min
Tmax (male, C57BL/6J hGLP-1R, mouse, plasma, po, 0.3 mg/kg, hGLP-1R mice, total, PO 0.3 mg/kg, read-out: Tmax Median): 30 min
concentration at 120 min (male, C57BL/6J hGLP-1R, mouse, plasma, po, 0.3 mg/kg, hGLP-1R mouse plasma collected at 120 min (IPGTT cohort), PO 0.3 mg/kg, read-out: Mean Concentration): 18.8 ng/mL
concentration at 0.25 h (male, C57BL/6J hGLP-1R, mouse, plasma, po, 0.3 mg/kg, hGLP-1R mouse plasma, PO 0.3 mg/kg, 0.25 h, read-out: Mean Concentration): 78.3 ng/mL
concentration at 0.5 h (male, C57BL/6J hGLP-1R, mouse, plasma, po, 0.3 mg/kg, hGLP-1R mouse plasma, PO 0.3 mg/kg, 0.5 h, individual animals, read-out: Concentration): 63.4 ng/mL
